In ChEMBL document CHEMBL1129504, “Structure-activity relationship for antineoplastic imidazoacridinones: synthesis and antileukemic activity in vivo” (1996):

System: Mus musculus
Assay: In vivo activity against murine P388 leukemia in mice at optimal dose 70 mg/kg/day
Type: functional

CN(C)CCCCCNc1ccc2ncn3c4ccc(O)cc4c(=O)c1c23
T/C: 172%
